Reference: patent US8334316B2, “Substituted organosulfur compounds and methods of using thereof” (ACEA Biosciences, Inc., priority 2004, dated 2012)
Values joined by “and” are separate entries in the source; they are usually repeats but may differ in a detail not shown here. Equal values may be shown once.

What was measured:
[1] = system: human cancer cell lines (H460, MV522, MCF7, A549, PC3, A431, HT1080, MDA-231, HT29, HCC2998, OVCAR4, A2780); assay: RT-CES system, panel of human cancer cell lines treated with dibenzyl trisulfide; assay type: cell-based; details: 1.5625-100 μM; FIGS. 1-5, 6A, 7-12
Text: The RT-CES system comprises three components, an electronic sensor analyzer, a device station and 16× or 96× microtiter plate devices. Microelectrode sensor array was fabricated on glass slides with lithographical microfabrication methods and the electrode-containing slides are assembled to plastic trays to form electrode-containing wells. Each 16× (or 96×) microtiter plate device used in RT-CES system comprises up to 16 (or 96) such electrode-containing wells. The device station receives the 16× or 96× microtiter plate devices and is capable of electronically switching any one of the wells to the sensor analyzer for impedance measurement. […] Under the RT-CES software control, the sensor analyzer can automatically select wells to be measured and continuously conduct impedance measurements. The impedance data from the analyzer is transferred to a computer, analyzed and processed by the integrated software.
To quantify cell status based on the measured cell-electrode impedance, a parameter termed Cell Index is derived, according to
[formula] where Rb(f) and Rcell(f) are the frequency dependent electrode resistances (a component of impedance) without cells or with cell present, respectively. N is the number of the frequency points at which the impedance is measured. Thus, Cell Index is a quantitative measure of the status of the cells in an electrode-containing well. […]

mouse sarcoma S180 = assay: In vivo antitumor efficacy, mouse sarcoma S180 model (subcutaneously transplanted), Example 1
mouse Lewis lung cancer = assay: In vivo antitumor efficacy, mouse Lewis lung cancer model (subcutaneously transplanted), Example 1
Protocol: Test controls. For the negative control, two groups were set up: the solvent only control group and normal saline control group. […] In the normal saline group, each mouse was administered with 0.5 ml of normal saline, once per day and for 7 or 10 consecutive days. For the positive control group, the anticancer compound, cyclophosphamide (CTX) was administered intraperitoneally at 30 mg/kg, once per day and for 7 or 10 consecutive days.
In the mouse Lewis lung cancer model, 200 mg of DBTS was dissolved in 5 mL castor oil (in polyoxyethlated version). […] The intravenous injection speed was about 0.5 mL/0.5 min.
The dosages and administration of test compounds are within the knowledge of those commonly skilled in pharmacology. For example, the test compounds may be administered by intravenous injection with a test compound solution twice per day and for 7 consecutive days. Alternatively, the test compounds may be administered by intravenous injection with a test compound solution once per day and for 10 consecutive days.
0.2 mL of the tumor cell suspension (between 4 and 8 million tumor cells) was then transplanted back into an experimental mouse by subcutaneous injection. […] Each removed solid tumor was weighted, and the tumor inhibition rate in the DBTS-treated groups and in the CTX-treated group was calculated according to the formula: Tumor inhibition rate %=(average weight of tumor in the negative control group−average weight of tumor in the compound treated group)/average weight of tumor in the negative control group×100 (2)
For the mouse Lewis lung cancer model, the Lewis lung cancer cells were subcutaneously transplanted at approximately 5 million cells per mouse. After 24 hours of the transplantation, each mouse in the test group was administered intravenously with dibenzyl trisulfide at 50, 25, or 12.5 mg/kg per day and for 10 consecutive days. For the positive control group, each mouse was administered with CTX at […] intraperitoneally per day and for 10 consecutive days. For the negative control group, each mouse was administered intravenously either with normal saline, or with the solvent for dibenzyl trisulfide at the same concentration as that in the test group per day and for consecutive 10 days. For each group, 10 mice were used.

c1ccc(CSSSCc2ccccc2)cc1 [DBTS, Dibenzyl trisulfide]
Effect on proliferation of cancer cell lines (time-dependent cell index) [1]: exhibited inhibitory effect on the proliferation of a number of cancer cell lines | Animal weight (g) end (mouse sarcoma S180; 12.5 mg/kg/d iv x7 qd): 24.5 g | Inhibition rate (%) (mouse sarcoma S180; 12.5 mg/kg/d iv x7 qd, vs 10% solvent control): 30.46% | Inhibition rate (%) (mouse sarcoma S180; 12.5 mg/kg/d iv x7 qd, vs normal saline control): 48.69% | Inhibition rate (%) (mouse sarcoma S180; 25 mg/kg/d iv x7 qd, vs 10% solvent control): 38.58% | Inhibition rate (%) (mouse sarcoma S180; 25 mg/kg/d iv x7 qd, vs normal saline control): 54.68% | Inhibition rate (%) (mouse sarcoma S180; 50 mg/kg/d iv x7 qd, vs 10% solvent control): 50.25% | Inhibition rate (%) (mouse sarcoma S180; 50 mg/kg/d iv x7 qd, vs normal saline control): 63.30% and 65% | Inhibition rate (%) (mouse Lewis lung cancer; 12.5 mg/kg/d iv x10 qd, vs 5% solvent control): 37.38% and 37.28% | Inhibition rate (%) (mouse Lewis lung cancer; 12.5 mg/kg/d iv x10 qd, vs normal saline control): 45.21% | Inhibition rate (%) (mouse Lewis lung cancer; 25 mg/kg/d iv x10 qd, vs 5% solvent control): 44.30% | Inhibition rate (%) (mouse Lewis lung cancer; 25 mg/kg/d iv x10 qd, vs normal saline control): 51.34% | Inhibition rate (%) (mouse Lewis lung cancer; 50 mg/kg/d iv x10 qd, vs 5% solvent control): 62.28% | Inhibition rate (%) (mouse Lewis lung cancer; 50 mg/kg/d iv x10 qd, vs normal saline control): 67.05% and 65%
